≈ marks a conversion by molar mass, not a printed value. Like-named read-outs stand apart in the source and are kept apart here.
Assays:
[1] = system: carrageenan-induced paw edema; assay: Carrageenan-induced paw edema (in vivo anti-inflammatory activity); parameters: species or system BALB/C albino mice; unit not given beside the values; conditions: 10 mg/kg, mice, n = 5
Protocol: At 7–8 weeks old, male BALB/C albino mice (29–35 g), were purchased from The National Institute of Health (NIH), Islamabad, Pakistan. Five animals were housed per group and placed in a controlled temperature and humidity-controlled room (22 °C and 66 ± 5%, respectively) in a 12 h light–dark cycle and provided with water and food ad libitum. Ethical approval was taken from the bio-ethical committee of Quaid-I-Azam University (Approval No. BEC-FBS-QAU2018-119) and all protocols were conducted following the Ethical Guide to the Code of Practice for the Housing and Care of Animals Act 1986 (ARRIVE (Animal Research: Reporting In Vivo Experiments) guidelines). The anti-inflammatory activity of the synthesized compounds was evaluated by using the carrageenan-induced rat paw edema assay. To determine the dose response of tetrahydroquinoline derivatives, animals were first given a dose of 0.1, 1 and 10 mg/kg against 100 µL carrageenan (1% solution in normal saline)/paw. Treatment was given 60 min before carrageenan injection. Readings were taken at 4 h post carrageenan injection. The in vivo anti-inflammatory activity was performed following the procedure described by Koksal, et al. in 2017. Paw edema was induced by injecting 100 µL of 1% sterile carrageenan solution into the right hind paw of mice. Synthesized compounds (10 mg/kg), vehicle (saline with 2% DMSO) and drug (acetylsalicylic acid, ASA 10 mg/kg) were administered to the mice orally by gastric intubation 60 min before injecting carrageenan into the right hind paw. The decrease in edema was measured by vernier calipers every 2 h.

[2] = DPPH free radical scavenging assay; conditions: mean ± SEM, n = 3; for IC50 (DPPH radical scavenging): concentration to scavenge 50% of the DPPH radicals
Protocol: The % free radical scavenging activity (%FRSA) of the synthetic compounds was evaluated by the discoloration of an unstable DPPH reagent to the stable yellow-colored 2,2-diphenyl-1-picrylhydrazine molecule by accepting one electron from a donor antioxidant; the mechanism is shown in Scheme 2.
The % FRSA (free radical scavenging activity) of the synthetic compounds was determined by using the method of Tai et al. with slight modifications. The antioxidant potential was determined by detecting the capacity of the synthetic compounds to quench the DPPH free radicals. The synthetic compounds were taken in a 96-well plate at three-fold concentrations of 200 µg/mL, 66.6 µg/mL, 22.2 µg/mL and 7.4 µg/mL. DPPH free radicals were added to entire wells to make up the volume up to 200 µL. DMSO and ascorbic acid were taken as negative and positive controls, respectively. The absorbance was taken at 630nm using a microplate reader (ELx800 BioTek). The percentage of scavenging activity was calculated by the given formula:% scavenging activity = (1 − Abs/Abc) × 100
Abs = sample’s absorbance; Abc = control’s absorbance.

Hep-2C cells = assay: MTT assay against Hep-2C cells; assay type: cell-based, Human; conditions: read-out: IC50 (Mean ± SEM) Hep-2C Cells
Protocol: Hep-2C cell line experiments were performed in the Immunology Lab of the National Institute of Health (NIH), Islamabad, Pakistan. Human cervix carcinoma cells Hep-2C (ATCC HB-8065) were cultured in Dulbecco’s modified Eagle’s medium (DMEM), comprising 10% fetal calf serum (10% FCS) and supplemented with 2 mM L-glutamine, 100 U/mL penicillin, 100 µg/mL streptomycin and 1 mM Na pyruvate, at 37 °C in a humidified 5% CO2 incubator.
The tetrazolium dye 3-(4, 5-dimethyl thiazolyl-2)-2, 5-diphenyltetrazolium bromide (MTT) was used to assess the cytotoxic potential of the test compounds. In living cells, MTT is reduced into its insoluble purple product formazan, which is measured spectrophotometrically.
Hep-2C cells, in a density of 1 × 10^6 (> 90% cell viability), were cultured in a 96-well plate and treated with different concentrations of the test compounds for 24, 48 and 72 h. Ten microliters of MTT (1 mg per mL) were added per well followed by incubation for 4 h. Insoluble formazan crystals were dissolved by adding 100 µL of DMSO. Cells were then incubated for another 2 h. Absorbance was measured at 570 nm by a microplate reader. Untreated Hep-2C cells were taken as controls and DMSO as a negative. % cell viability = (abssample − absblank)/(abscontrol − absblank) × 100

brine shrimp nauplii = assay: Brine shrimp lethality bioassay; assay type: in vivo; conditions: 24 h, n = 3
Protocol: Brine shrimp eggs were hatched in a shallow rectangular plastic dish and filled with artificial seawater, which was prepared with a commercial salt mixture. In a 96-well plate, 150 µL of artificial seawater was added and 10 nauplii were added into this. Test compounds (400, 200, 100 and 50 µg/mL) were added into each well and the final volume was made up by adding the artificial seawater. The well plate was left uncovered under a lamp. The number of surviving shrimps were counted and recorded after 24 h. The test was repeated in triplicate. […] The percentage mortality (%M) was also calculated by dividing the number of dead nauplii by the total number and then multiplied by 100.

[3] = MTT cytotoxicity against raw macrophages; assay type: cell-based, albino rats; conditions: albino, rat; for viability at 24 h, 1 µM / viability at 24 h, 10 µM / viability at 24 h, 50 µM / viability at 24 h, 100 µM: peritoneal macrophages (raw macrophages), raw macrophages, MTT, read-out: % Cell Viability; for IC50 at 24 h: primary peritoneal macrophages, mean ± SEM, n = 3
Protocol: The % cell viability of the synthetic library was evaluated in vitro by measuring the mitochondrial dehydrogenase activity (MTT test) on raw macrophages.
The cytotoxic potential was assessed by using an MTT 3-(4,5-dimethyl thiazole-2-yl)-2,5- diphenyl tetrazolium bromide assay. Briefly, macrophages were extracted from the peritoneal cavity of albino rats and plated at a density of 1 × 10^6 per well in a 96-well plate and incubated in a 5% CO2 incubator at 37 °C for 24 h. The cells were treated with various concentrations of the test compounds (100 µM, 50 µM, 10 µM and 1 µM) or vehicle alone. The test compounds were first dissolved in DMSO to make a 100 mM stock solution and then further dilutions were made from this stock solution. After 24 h of incubation, 20 µL of MTT (1 mg/mL in normal saline) was added into each well and incubated under the same conditions for 2 h. Mitochondrial succinate dehydrogenase converted MTT in live cells into purple formazan crystals. The formazan crystals were then solubilized in 100 µL DMSO, and the absorbance was measured at 570 nm. The % cell viability was calculated by the following formula; % cell viability = (abssample − absblank)/(abscontrol − absblank) × 100

[4] = system: NO generated by LPS-induced macrophages; assay: Nitric oxide assay (Griess) in LPS-induced macrophages; assay type: cell-based, murine; conditions: Mus musculus, Macrophage, 18 h, LPS 1 µg/mL, read-out: % NO Production (Mean ± SEM)
Protocol: A Griess reagent, a spectrophotometric determination of nitrite level, was carried out to measure the nitrite level in the conditioned medium of macrophages treated with lipopolysaccharide (LPS). Sodium nitrite (NaNO2) was used as a standard compound for the standard curve (Figure 8). The NO concentrations were obtained using the standard curve equation: y = 0.0083x + 0.0017, R^2 = 0.9999, where y is the absorbance at 540 nm and x is the NO concentration in µM. The inhibitory activity of the tested compounds towards NO generated by LPS-induced macrophages was obtained from the calculated value of x.
The anti-inflammatory effect of the synthesized compounds in murine macrophages was evaluated by using the Griess reaction method, described previously. In brief, 1 × 10^6 were plated in a 96-well plate and incubated in a 5% CO2 incubator at 37 °C for 24 h, pre-treated with different concentrations (100 µM, 50 µM, 10 µM and 1 µM) of synthetic compounds for another 2 h and challenged with LPS (1 µg/mL) for an additional 18 h. Equal volumes of Griess reagent (1% sulphanilamide in 50% phosphoric acid and 0.1% naphthyl ethylenediamine dihydrochloride in distilled water and vortexed) and culture medium were mixed and the absorbance was taken at 540 nm. Lipopolysaccharide (LPS) was taken as a blank and piroxicam was taken as a positive control. A t-test was applied to determine the significance of the results.

Row | Compound | % DPPH Scavenging Activity ([2]; 7.4 µg/mL) [%] | % DPPH Scavenging Activity ([2]; 22.22 µg/mL) [%] | % DPPH Scavenging Activity ([2]; 66.66 µg/mL) [%] | % DPPH Scavenging Activity ([2]; 200 µg/mL) [%] | IC50 (DPPH radical scavenging) [2] [µg/mL] | LD50 ± SEM (brine shrimp lethality) (brine shrimp nauplii) [µg/mL] | viability at 24 h, 1 µM [3] [%] | viability at 24 h, 10 µM [3] [%] | viability at 24 h, 50 µM [3] [%] | viability at 24 h, 100 µM [3] [%] | IC50 at 24 h [3] [µM] | activity at 1 µM [4] [%] | activity at 10 µM [4] [%] | activity at 50 µM [4] [%] | activity at 100 µM [4] [%] | other results
1 | CC(=O)Oc1ccccc1C(=O)O [Acetyl salicylic acid, reference compound] | – | – | – | – | – | – | – | – | – | – | – | – | – | – | – | Paw thickness ([1]; 0 h after carrageenan injection): 2.14 ± 0.08; Paw thickness ([1]; 2 h after carrageenan injection): 2.26 ± 0.05; Paw thickness ([1]; 4 h after carrageenan injection): 2.32 ± 0.04; Paw thickness ([1]; 6 h after carrageenan injection): 2.39 ± 0.02
2 | O=C1O[C@H]([C@@H](O)CO)C(O)=C1O [Ascorbic Acid, reference compound] | 31.35 ± 0.23 | 52.12 ± 0.31 | 76.63 ± 0.19 | 89.01 ± 0.18 | 41.38 ± 0.34 (≈ 235 µM) | – | – | – | – | – | – | – | – | – | – | –
3 | N.N.[Cl][Pt][Cl] [Cisplatin, reference compound] | – | – | – | – | – | – | – | – | – | – | – | – | – | – | – | IC50 (Hep-2C cells; 24 h): 19.1 ± 1.06 µM; IC50 (Hep-2C cells; 48 h): 17.5 ± 1.07 µM; IC50 (Hep-2C cells; 72 h, listed as cisplatin): 14.6 ± 1.01 µM; IC50 (Hep-2C cells; 72 h): 14.6 ± 1.01 µM
4 | COc1cccc2c1C(=O)c1c(O)c3c(c(O)c1C2=O)C[C@@](O)(C(=O)CO)C[C@@H]3O[C@H]1C[C@H](N)[C@H](O)[C@H](C)O1 [Doxorubicin, reference compound] | – | – | – | – | – | 124 ± 1.54 | 51 ± 1.34 | 40 ± 0.87 | 33 ± 1.01 | 17 ± 0.83 | 17.1 ± 0.37 | – | – | – | – | –
5 | CN1C(C(=O)Nc2ccccn2)=C(O)c2ccccc2S1(=O)=O [Piroxicam, reference compound] | – | – | – | – | – | – | – | – | – | – | – | 25.4 ± 0.45 | 20.7 ± 0.24 | 16.5 ± 0.41 | 13.4 ± 0.54 | –
6 | O=c1c(O)c(-c2ccc(O)c(O)c2)oc2cc(O)cc(O)c12 [Quercetin, reference compound] | 42.34 ± 0.36 | 58.31 ± 0.28 | 69.81 ± 0.17 | 81.43 ± 0.21 | 41.64 ± 1.01 (≈ 138 µM) | – | – | – | – | – | – | – | – | – | – | –
7 | c1ccc2c(c1)CCCN2CN1CCNCC1 [SF6, 1-(Piperazine-1-ylmethyl)-1,2,3,4-tetrahydroquinoline] | 8.81 ± 0.21 | 37.75 ± 0.31 | 50.32 ± 0.18 | 66.61 ± 0.13 | 35.89 ± 0.33 (≈ 155 µM) | 121.2 ± 1.09 | 91 ± 0.99 | 87 ± 0.82 | 65 ± 0.76 | 60 ± 1.21 | 23.37 ± 0.17 | 77.3 ± 0.62 | 72.33 ± 0.59 | 61.11 ± 0.54 | 52.44 ± 0.49 | –
8 | CCN(CC)CN1CCCc2ccccc21 [SF11, N-((3,4-dihydroquinolin-1(2H)-yl)methyl)-N-ethylethanamine] | 7.76 ± 0.18 | 15.54 ± 0.09 | 30.9 ± 0.12 | 43.93 ± 0.28 | 53.63 ± 0.13 (≈ 246 µM) | 200 ± 2.11 | 95 ± 0.91 | 82 ± 0.84 | 62 ± 1.2 | 41 ± 0.83 | 26.4 ± 0.31 | 43 ± 0.66 | 39.8 ± 0.61 | 33.7 ± 0.53 | 25.7 ± 0.44 | –
